Here are results for 11 compounds from PubChem BioAssay (NCI).

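96-well plates; 48 h exposure; 5 concentrations. Endpoints by linear interpolation between flanking doses. Not reached: highest tested concentration assigned. TGI denotes the concentration required for complete inhibition of growth.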

Among the test systems are DU-145 prostate; HCT-15 colon; NCI-H522 lung; HCT-116 colon; A498 renal; SNB-75 CNS; CAKI-1 renal; HOP-62 NSCLC; KM12 colon; HOP-92 NSCLC.
Experiment in all cases: NCI tumour cell line growth inhibition, 48 h

Take `COC(=O)C1(Cc2ccc3c(c2)CCC3)Cc2ccc3c(c2C1=O)CCC3` (stereo not given): the TGI in the experiment on DU-145 prostate is above 100 µM; in the experiment on HCT-15 colon it was above 40.5 µM; in the experiment on NCI-H522 lung, 18.8 µM; with HCT-116 colon it was above 100 µM; in the experiment with A498 renal, 46.5 µM; with SNB-75 CNS, above 55.5 µM. Further, the TGI was above 100 µM in the experiment with CAKI-1 renal, above 100 µM in the experiment with HOP-62 NSCLC, above 100 µM with KM12 colon and 54 µM with HOP-92 NSCLC.
As to `CCOC(=O)NC(Nc1ccc(F)cc1F)(C(F)(F)F)C(F)(F)F`, the TGI in the experiment with DU-145 prostate, in the experiment on HCT-15 colon, with NCI-H522 lung, in the experiment on HCT-116 colon, in the experiment on A498 renal and in the experiment with SNB-75 CNS was above 100 µM throughout. In addition, the TGI in the experiment with CAKI-1 renal, with HOP-62 NSCLC, with KM12 colon and with HOP-92 NSCLC was above 100 µM each time.
As to `O=C(CCCc1cccc2[nH]c3c(c12)CN(Cc1ccccc1)CC3)c1ccc(F)cc1`, the TGI in the experiment on DU-145 prostate is above 100 µM; with HCT-15 colon it was above 100 µM; with NCI-H522 lung, above 91.1 µM; with HCT-116 colon, above 100 µM; with A498 renal it was above 100 µM; with SNB-75 CNS it was above 100 µM. For the same compound, the TGI in the experiment with CAKI-1 renal was above 100 µM; in the experiment with HOP-62 NSCLC, above 52.6 µM; with KM12 colon, above 100 µM; in the experiment with HOP-92 NSCLC, above 100 µM.
As for `CCO/N=C\c1ccc2oc(-c3ccccc3)cc(=O)c2c1`, the TGI in the experiment with DU-145 prostate was determined as 13.3 µM; in the experiment on HCT-15 colon, 12.4 µM; with NCI-H522 lung, 0.265 µM; in the experiment on HCT-116 colon, 8.23 µM; in the experiment with A498 renal, 21.9 µM; in the experiment with SNB-75 CNS it was 13.8 µM. Moreover, the TGI was determined as 41.7 µM in the experiment on CAKI-1 renal, 28.7 µM in the experiment on HOP-62 NSCLC, 11.1 µM in the experiment on KM12 colon and 31.5 µM with HOP-92 NSCLC.
For the compound `Cc1ccc(C(=O)Nc2ccc(S(=O)(=O)O)c3cc(S(=O)(=O)O)cc(S(=O)(=O)O)c23)cc1NC(=O)c1cccc(NC(=O)Nc2cccc(C(=O)Nc3cc(C(=O)Nc4ccc(S(=O)(=O)O)c5cc(S(=O)(=O)O)cc(S(=O)(=O)O)c45)ccc3C)c2)c1`, the TGI in the experiment on DU-145 prostate, with HCT-15 colon, in the experiment with NCI-H522 lung, in the experiment with HCT-116 colon, in the experiment with A498 renal and in the experiment on SNB-75 CNS was above 100 µM in each case. For the same compound, the TGI in the experiment with CAKI-1 renal, with HOP-62 NSCLC, in the experiment with KM12 colon and with HOP-92 NSCLC was above 100 µM each time.
Take `COc1cc2ncnc(NS(=O)(=O)c3cc4ccccc4s3)c2cc1OC`: the TGI in the experiment on DU-145 prostate, in the experiment with HCT-15 colon, with NCI-H522 lung, in the experiment with HCT-116 colon, in the experiment with A498 renal and with SNB-75 CNS was above 100 µM in each case. Besides, the TGI with CAKI-1 renal, in the experiment with HOP-62 NSCLC, in the experiment on KM12 colon and in the experiment with HOP-92 NSCLC was above 100 µM throughout.
In the case of `O=C(N/N=C\c1ccc(Cl)cc1)Nc1ccc2ccccc2c1`, the TGI in the experiment on DU-145 prostate is above 100 µM; in the experiment on HCT-15 colon, above 100 µM; in the experiment on NCI-H522 lung it was above 100 µM; in the experiment with HCT-116 colon, above 100 µM; with A498 renal it was above 100 µM; in the experiment with SNB-75 CNS, 76.8 µM. For the same compound, the TGI with CAKI-1 renal is above 100 µM; with HOP-62 NSCLC, 51.3 µM; with KM12 colon, above 100 µM; in the experiment on HOP-92 NSCLC, 77.7 µM.
As for `COc1ccc(SCc2cc(OC)ccc2OC)cc1`, the TGI with DU-145 prostate is above 100 µM; in the experiment on HCT-15 colon, above 66.3 µM; in the experiment with NCI-H522 lung, above 100 µM; with HCT-116 colon it was above 100 µM; in the experiment with A498 renal it was above 87.1 µM; in the experiment with SNB-75 CNS, above 52.8 µM. Also, the TGI with CAKI-1 renal was above 100 µM; in the experiment with HOP-62 NSCLC, above 100 µM; with KM12 colon, above 100 µM; in the experiment on HOP-92 NSCLC, 94.3 µM.
In the case of `O=C(O)c1ccc2c(O)c(O)ccc2c1`, the TGI was above 100 µM in the experiment with DU-145 prostate; 55 µM in the experiment on HCT-15 colon; 36.4 µM with NCI-H522 lung; 79.7 µM in the experiment on HCT-116 colon; 97.9 µM in the experiment with A498 renal; 22.4 µM in the experiment on SNB-75 CNS. Besides, the TGI in the experiment with CAKI-1 renal was 48.2 µM; in the experiment with HOP-62 NSCLC, 41 µM; in the experiment with KM12 colon, 31.3 µM; in the experiment on HOP-92 NSCLC it was above 84.3 µM.
For `O=C(CC(C(=O)c1ccsc1)c1cccs1)c1ccccc1` (stereo not given), the TGI in the experiment on DU-145 prostate, with HCT-15 colon, in the experiment with NCI-H522 lung, in the experiment on HCT-116 colon, in the experiment on A498 renal and in the experiment with SNB-75 CNS was above 100 µM in each case. In addition, the TGI in the experiment with CAKI-1 renal, in the experiment on HOP-62 NSCLC, in the experiment with KM12 colon and in the experiment on HOP-92 NSCLC was above 100 µM in each case.
`Cc1cc2ncn(CC(=O)O)c2cc1C`: the TGI with DU-145 prostate, in the experiment with HCT-15 colon, with NCI-H522 lung, in the experiment on HCT-116 colon, in the experiment on A498 renal and in the experiment with SNB-75 CNS was above 100 µM in each case. In addition, the TGI with CAKI-1 renal, in the experiment on HOP-62 NSCLC, with KM12 colon and with HOP-92 NSCLC was above 100 µM throughout.
